Tests used:
[1] = Biodistribution of 18F-labelled tracers in rats; format: in vivo
Experimental: [^18F]Fluoride, in the form of H^18F, was produced by the ^18O(p,n)^18F nuclear reaction by bombardment of ^18O-enriched water target. The aqueous [^18F]fluoride solution was added to a 2.5-mL wheaton vial containing dry acetonitrile (1 mL), Kryptofix 2.2.2 (5 mg, 13.3 μmol) and potassium carbonate (2 mg, 14.5 μmol). The solvent was evaporated under a stream of nitrogen at 90° C. with a reducing vacuum. This azeotropic drying was repeated twice by further addition of acetonitrile (2×1 mL). The tosylate precursor 2-(2-(4-(2-tosylethoxy)phenyl)-6-chloroimidazo[1,2-a]pyridin-3-yl)-N,N-diethylacetamide (2 mg, 3.6 μmol) was dissolved in acetonitrile (1 ml) and added to the dried K222.K2CO3.KF complex. Stirring and heating at 90° C. continued for 10 to 15 mins before the reaction mixture was diluted with mobile phase and purified by reverse phase HPLC on an Alltech Alltima, C18, 10μ, 250×22 mm column eluting at 10 mLs/min with 45% acetonitrile, 55% water with 0.1% TFA.
(§1) The biodistribution of PBR132* was undertaken in SD rats and analysis up to 4 h p.i. in the brain and peripheral tissues was performed. The specificity and selectivity of the tracer were assessed by pre-treatment with PBR and Central benzodiazepine receptor (CBR) specific ligands (1 mg/kg) 5 min prior to injection of PBR132*.
(§2) The biodistribution of PBR 147* was performed in SD rats and brain and peripheral tissues were analysised at 15, 30 min, 1, and 4 h p.i. The specificity and selectivity of the tracer was assessed by pre-treatment of the animals with the PBR ligands PK11195 and Ro 5-4864 and with Flumazenil for CBR at 1 mg/kg 5 min prior to injection of PBR 147*
(§3) The biodistribution of PBR102* and PBR111* were performed in SD rats and brain and peripheral tissues analysed at 15, 30 min, 1, and 4 h p.i. The specificity and selectivity of the tracers were assessed by pre-treatment with the PBR ligands PK11195 and Ro 5-4864 and with Flumazenil for CBR at 1 mg/kg 5 min prior to injection of the corresponding tracers.
(§4) The specificity and selectivity of the tracers were assessed by pre-treatment with the PBR ligands PK11195 and Ro 5-4864 and with Flumazenil for CBR at 1 mg/kg 5 min prior to injection of the corresponding tracers.

[2] = target: T1, peripheral benzodiazepine receptors (Rattus norvegicus, UniProt P16257); assay: In vivo blocking / competition of tracer uptake by pre-treatment with PBR and CBR ligands; settings: rats; for Tracer uptake after pre-treatment with PK 11195 / Tracer uptake after pre-treatment with Ro 5-4864: PBR-expressing tissues (brain/peripheral organs, adrenals apart); for Tracer uptake after pre-treatment with flumazenil (central benzodiazepine ligand): flumazenil 1 mg/kg 5 min prior to tracer, brain or peripheral organs
T1 construct: high uptake in the tissues which have known PBR sites; from tissue; host or cells: organs of living SD rats (brain and peripheral tissues), in vivo
Experimental: The criteria for significance were **p<0.01 (highly significant) and *p<0.05 (significant). No stars implies not statistical difference from normals or controls.
as §1, §2, §3, §4

[3] = test system: central benzodiazepine receptors; assay: In vitro binding, [3H]-Flumazenil, brain cortex membrane preparation; settings: @ 10^−5M, [3H]-Flumazenil
Experimental: Non-specific binding was determined with Flumazenil (20 μM). In both cases, incubations were terminated by rapid filtration through Whatman GF/B glass fibre. Filters were immediately washed 3 times with 5 mL ice-cold 50 mM Tris/HCl at pH 7.4. Filters were counted in a β-scintillation counter (Packard) to measure the amount of bound radioactivity. The IC50 of the compounds for the peripheral benzodiazepine binding site and the central benzodiazepine receptor were calculated using Kell 6 software.

[4] = LogP HPLC
[5] = SD rats, 15 min, decay correction not stated
[6] = SD rats, 4 hours, decay correction not stated
[7] = rats, 15 min, corrected for decay of 18F
[8] = rats, 30 min, corrected for decay of 18F
[9] = rats, 60 min, corrected for decay of 18F
[10] = rats, 4 hours, corrected for decay of 18F

CCN(CC)C(=O)Cc1c(-c2ccc(C(C)(C)C)cc2)nc2ccc([18F])nn12 [PBR132*, 2-(2-(4-tert-butylphenyl)-6-fluoroimidazo[1,2-b]pyridazin-3-yl)-N,N-diethylacetamide]
Biodistribution: Bone [1, 5]: 1 % ID/g | Biodistribution: Heart [1, 5]: 8 % ID/g | Biodistribution: Kidney [1, 5]: 4 % ID/g | Biodistribution: Lungs [1, 5]: 16 % ID/g | Biodistribution: Olfactory bulbs [1, 5]: 0.63 % ID/g | Biodistribution: Adrenals ([1]; SD rats, 30 min, decay correction not stated): 13 % ID/g | Biodistribution: Bone [1, 6]: 3.3 % ID/g | Biodistribution: Heart [1, 6]: less than 2.3 % ID/g | Biodistribution: Kidney [1, 6]: less than 2.3 % ID/g | Biodistribution: Lungs [1, 6]: less than 2.3 % ID/g | Biodistribution: Olfactory bulbs [1, 6]: 0.25 % ID/g | Blood activity level / concentration in the blood over the 4 h study period ([1]; SD rats, throughout 15 min to 4 h): low | Biodistribution: Adrenals [1, 7]: 10.03 ± 1.11 % ID/g | Biodistribution: Bladder [1, 7]: 0.73 ± 0.33 % ID/g | Biodistribution: Blood [1, 7]: 0.41 ± 0.05 % ID/g | Biodistribution: Bone [1, 7]: 1.04 ± 0.14 % ID/g | Biodistribution: Brain [1, 7]: 0.35 ± 0.03 % ID/g | Biodistribution: GIT [1, 7]: 1.08 ± 0.08 % ID/g | Biodistribution: Heart [1, 7]: 8.13 ± 0.77 % ID/g | Biodistribution: Kidney [1, 7]: 4.10 ± 0.28 % ID/g | Biodistribution: Liver [1, 7]: 1.22 ± 0.17 % ID/g | Biodistribution: Lungs [1, 7]: 16.09 ± 2.56 % ID/g | Biodistribution: Muscle [1, 7]: 0.89 ± 0.28 % ID/g | Biodistribution: Olfactory bulbs [1, 7]: 0.63 ± 0.09 % ID/g | Biodistribution: Pancreas [1, 7]: 2.01 ± 0.26 % ID/g | Biodistribution: Skin [1, 7]: 0.60 ± 0.09 % ID/g | Biodistribution: Spleen [1, 7]: 5.85 ± 0.93 % ID/g | Biodistribution: Stomach [1, 7]: 0.58 ± 0.19 % ID/g | Biodistribution: Testes [1, 7]: 0.31 ± 0.03 % ID/g | Biodistribution: Thymus [1, 7]: 0.78 ± 0.20 % ID/g | Biodistribution: Thyroid [1, 7]: 8.87 ± 1.06 % ID/g | Biodistribution: Adrenals [1, 8]: 13.21 ± 1.16 % ID/g | Biodistribution: Bladder [1, 8]: 0.87 ± 0.36 % ID/g | Biodistribution: Blood [1, 8]: 0.32 ± 0.05 % ID/g | Biodistribution: Bone [1, 8]: 1.25 ± 0.18 % ID/g | Biodistribution: Brain [1, 8]: 0.23 ± 0.02 % ID/g | Biodistribution: GIT [1, 8]: 1.36 ± 0.22 % ID/g | Biodistribution: Heart [1, 8]: 8.34 ± 0.86 % ID/g | Biodistribution: Kidney [1, 8]: 3.94 ± 0.54 % ID/g | Biodistribution: Liver [1, 8]: 1.18 ± 0.33 % ID/g | Biodistribution: Lungs [1, 8]: 11.58 ± 2.11 % ID/g | Biodistribution: Muscle [1, 8]: 0.91 ± 0.10 % ID/g | Biodistribution: Olfactory bulbs [1, 8]: 0.46 ± 0.11 % ID/g | Biodistribution: Pancreas [1, 8]: 1.97 ± 0.32 % ID/g | Biodistribution: Skin [1, 8]: 0.65 ± 0.08 % ID/g | Biodistribution: Spleen [1, 8]: 6.89 ± 0.80 % ID/g | Biodistribution: Stomach [1, 8]: 0.64 ± 0.11 % ID/g | Biodistribution: Testes [1, 8]: 0.31 ± 0.03 % ID/g | Biodistribution: Thymus [1, 8]: 0.80 ± 0.06 % ID/g | Biodistribution: Thyroid [1, 8]: 9.15 ± 0.87 % ID/g | Biodistribution: Adrenals [1, 9]: 11.24 ± 2.03 % ID/g | Biodistribution: Bladder [1, 9]: 0.84 ± 0.08 % ID/g | Biodistribution: Blood [1, 9]: 0.17 ± 0.00 % ID/g | Biodistribution: Bone [1, 9]: 2.06 ± 0.10 % ID/g | Biodistribution: Brain [1, 9]: 0.12 ± 0.00 % ID/g | Biodistribution: GIT [1, 9]: 1.78 ± 0.04 % ID/g | Biodistribution: Heart [1, 9]: 6.87 ± 0.53 % ID/g | Biodistribution: Kidney [1, 9]: 3.24 ± 0.15 % ID/g | Biodistribution: Liver [1, 9]: 0.67 ± 0.06 % ID/g | Biodistribution: Lungs [1, 9]: 6.40 ± 0.50 % ID/g | Biodistribution: Muscle [1, 9]: 0.50 ± 0.03 % ID/g | Biodistribution: Olfactory bulbs [1, 9]: 0.36 ± 0.05 % ID/g | Biodistribution: Pancreas [1, 9]: 1.20 ± 0.19 % ID/g | Biodistribution: Skin [1, 9]: 0.64 ± 0.07 % ID/g | Biodistribution: Spleen [1, 9]: 5.56 ± 0.67 % ID/g | Biodistribution: Stomach [1, 9]: 0.47 ± 0.05 % ID/g | Biodistribution: Testes [1, 9]: 0.32 ± 0.01 % ID/g | Biodistribution: Thymus [1, 9]: 0.88 ± 0.07 % ID/g | Biodistribution: Thyroid [1, 9]: 18.30 ± 1.00 % ID/g | Biodistribution: Adrenals [1, 10]: 13.51 ± 0.61 % ID/g | Biodistribution: Bladder [1, 10]: 0.99 ± 0.30 % ID/g | Biodistribution: Blood [1, 10]: 0.07 ± 0.00 % ID/g | Biodistribution: Bone [1, 10]: 3.28 ± 0.65 % ID/g | Biodistribution: Brain [1, 10]: 0.07 ± 0.00 % ID/g | Biodistribution: GIT [1, 10]: 2.93 ± 0.39 % ID/g | Biodistribution: Heart [1, 10]: 4.71 ± 0.31 % ID/g | Biodistribution: Kidney [1, 10]: 2.31 ± 0.17 % ID/g | Biodistribution: Liver [1, 10]: 0.31 ± 0.03 % ID/g | Biodistribution: Lungs [1, 10]: 2.42 ± 0.25 % ID/g | Biodistribution: Muscle [1, 10]: 0.24 ± 0.06 % ID/g | Biodistribution: Olfactory bulbs [1, 10]: 0.25 ± 0.03 % ID/g | Biodistribution: Pancreas [1, 10]: 0.57 ± 0.10 % ID/g | Biodistribution: Skin [1, 10]: 0.67 ± 0.17 % ID/g | Biodistribution: Spleen [1, 10]: 2.64 ± 0.36 % ID/g | Biodistribution: Stomach [1, 10]: 0.72 ± 0.24 % ID/g | Biodistribution: Testes [1, 10]: 0.42 ± 0.06 % ID/g | Biodistribution: Thymus [1, 10]: 1.02 ± 0.06 % ID/g | Biodistribution: Thyroid [1, 10]: 7.41 ± 0.68 % ID/g | Uptake in tissues which have known PBR sites ([1]; rats, in vivo biodistribution): high uptake | Tracer uptake after pre-treatment with PK 11195 ([2]; PK 11195 1 mg/kg 5 min prior to tracer): decreased | Tracer uptake after pre-treatment with PK 11195 ([2]; PK 11195 1 mg/kg 5 min prior to tracer, listed as [^18F]PBR132): blocking effect | Tracer uptake in the adrenals after pre-treatment with PK 11195 ([2]; PK 11195 1 mg/kg 5 min prior to tracer, adrenals): increase | Tracer uptake after pre-treatment with Ro 5-4864 ([2]; Ro 5-4864 1 mg/kg 5 min prior to tracer): decreased | Tracer uptake after pre-treatment with Ro 5-4864 ([2]; Ro 5-4864 1 mg/kg 5 min prior to tracer, listed as [^18F]PBR132): blocking effect | Tracer uptake in the adrenals after pre-treatment with Ro 5-4864 ([2]; Ro 5-4864 1 mg/kg 5 min prior to tracer, adrenals): increase | Tracer uptake after pre-treatment with flumazenil (central benzodiazepine ligand) [2]: no effect | Tracer uptake after pre-treatment with flumazenil (central benzodiazepine ligand) ([2]; listed as [^18F]PBR132): does not reduce | Tracer uptake after pre-treatment with the non-radioactive analogue ([2]; non-radioactive analogue 1 mg/kg, PBR-expressing tissues): blocking effect

CCN(CC)C(=O)Cc1c(-c2ccc(OCCCF)cc2)nn2c(C)cc(C)nc12 [PBR 146, 2-(2-(4-(3-fluoropropoxy)phenyl)-5,7-dimethylpyrazolo[1,5-a]pyrimidin-3-yl)-N,N-diethylacetamide]
CBR, % @ 10^−5M [3]: 50% @ 10^−5M | chromatographic logP [4]: 3.16 ± 0.1
